According to patent US12606541B2, “PPARg modulators and methods of use” (Eisai R&D Management Co., Ltd., priority 2020, dated 2026):

Experiments:
UM-UC-9 engineered cells = assay: Cell proliferation / short-term viability assay, CellTiter-Glo 144 h; format: cell-based, human; conditions: Homo sapiens, UM-UC-9, 144 h, read-out: CTGlo 144 h UMUC9.5, G150
In short: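 Viability read by CellTiter-Glo 2.0 luminescence at day 7 versus DMSO-vehicle wells and a T0 plate measured on day 0. Cells: UM-UC-9 engineered assay-ready stocks, 500 cells/well in high-glucose DMEM with 10% FBS, 37° C, 5% CO2.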

His6-TEV-PPARγ-(234-505) = target: T1, His6-TEV-PPARγ-(234-505) (Homo sapiens, UniProt P37231); assay: TR-FRET Assay to Measure Co-R Peptide Recruitment to PPARγ; format: biochemical; conditions: Co-R peptide (SMRT-ID2) recruitment; top final concentration 20 μM; read-out: TR-FRET i-Ag; AC50
T1 construct: The His6-TEV-PPARγ-(234-505) protein for assay was expressed and purified; TEV cleavage site (N); made in house
T1 sequence (P37231 234-505): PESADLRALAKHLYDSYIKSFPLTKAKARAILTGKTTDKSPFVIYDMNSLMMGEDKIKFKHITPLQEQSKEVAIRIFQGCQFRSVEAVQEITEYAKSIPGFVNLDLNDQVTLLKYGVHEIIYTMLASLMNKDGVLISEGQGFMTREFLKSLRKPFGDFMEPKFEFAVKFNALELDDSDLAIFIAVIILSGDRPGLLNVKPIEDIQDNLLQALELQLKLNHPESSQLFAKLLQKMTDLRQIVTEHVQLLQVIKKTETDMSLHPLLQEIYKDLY
In short: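 Corepressor recruitment is measured by adding terbium-labeled anti-His antibody and FITC SMRT-ID2 peptide, at 5 and 200 nM final, after a 20-minute room-temperature protein–compound incubation. After one further hour, signal is converted to percent response between DMSO and 500 nM T0070907 wells.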

Compound	AC50 (His6-TEV-PPARγ-(234-505)) [µM]	IC50 (UM-UC-9 engineered cells) [µM]
COc1cc(-c2cc(C(=O)N3CCC(C(=O)NCC45CC(CCO4)C5)CC3)n[nH]2)c(Cl)cn1 [Example 230]	0.134	0.697
COc1cc(-c2cc(C(=O)N3CCC(C(=O)NCc4cnc5c(cnn5C)c4)CC3)n[nH]2)c(Cl)cn1 [Example 232, 1-(5-(5-chloro-2-methoxypyridin-4-yl)-1H-pyrazole-3-carbonyl)-N-((1-methyl-1H-pyrazolo[3,4-b]pyridin-5-yl)methyl)piperidine-4-carboxamide]	0.516	2.15
COc1cc(-c2cc(C(=O)N3CCC(C(=O)N[C@H]4CCOc5ccc(C#N)cc54)CC3)n[nH]2)c(Cl)cn1 [Example 233, (S)-1-(5-(5-chloro-2-methoxypyridin-4-yl)-1H-pyrazole-3-carbonyl)-N-(6-cyanochroman-4-yl)piperidine-4-carboxamide]	0.196	3.43
COc1cc(-c2cc(C(=O)N3CCC(C(=O)NCc4ccc5c(c4)CC(=O)N5C)CC3)n[nH]2)c(Cl)cn1 [Example 235, 1-(5-(5-chloro-2-methoxypyridin-4-yl)-1H-pyrazole-3-carbonyl)-N-((1-methyl-2-oxoindolin-5-yl)methyl)piperidine-4-carboxamide]	0.404	2.36
COc1cc(-c2cc(C(=O)N3CCC(C(=O)NCc4ccc5c(c4)CCS5(=O)=O)CC3)n[nH]2)c(Cl)cn1 [Example 237, 1-(5-(5-chloro-2-methoxypyridin-4-yl)-1H-pyrazole-3-carbonyl)-N-((1,1-dioxido-2,3-dihydrobenzo[b]thiophen-5-yl)methyl)piperidine-4-carboxamide]	0.722	> 10
COc1cc(-c2cc(C(=O)N3CCC(C(=O)NCc4nccc(C(F)F)n4)CC3)n[nH]2)c(Cl)cn1 [Example 238, 1-(5-(5-chloro-2-methoxypyridin-4-yl)-1H-pyrazole-3-carbonyl)-N-((4-(difluoromethyl)pyrimidin-2-yl)methyl)piperidine-4-carboxamide]	0.839	5.16
COc1cc(-c2cc(C(=O)N3CCC(C(=O)NCc4cccc(C(F)F)n4)CC3)n[nH]2)c(Cl)cn1 [Example 239, 1-(5-(5-chloro-2-methoxypyridin-4-yl)-1H-pyrazole-3-carbonyl)-N-((6-(difluoromethyl)pyridin-2-yl)methyl)piperidine-4-carboxamide]	0.246	1.4
COc1cc(-c2cc(C(=O)N3CCC(C(=O)NCc4ncc5c(n4)CCC5)CC3)n[nH]2)c(Cl)cn1 [Example 241, 1-(5-(5-chloro-2-methoxypyridin-4-yl)-1H-pyrazole-3-carbonyl)-N-((6,7-dihydro-5H-cyclopenta[d]pyrimidin-2-yl)methyl)piperidine-4-carboxamide]	0.88	3.48
COc1cc(-c2cc(C(=O)N3CCC(C(=O)NCc4ccc5c(c4)C(C)(C)C(=O)N5)CC3)n[nH]2)c(Cl)cn1 [Example 242, 1-(5-(5-chloro-2-methoxypyridin-4-yl)-1H-pyrazole-3-carbonyl)-N-((3,3-dimethyl-2-oxoindolin-5-yl)methyl)piperidine-4-carboxamide]	0.0742	1.66
COc1cc(-c2cc(C(=O)N3[C@@H]4CC[C@H]3C[C@H](C(=O)NCc3ccc5[nH]nc(F)c5c3)C4)n[nH]2)c(F)cn1 [Example 258, (1R,3S,5S)—N-[(3-fluoro-1H-indazol-5-yl)methyl]-8-[5-(5-fluoro-2-methoxypyridin-4-yl)-1H-pyrazole-3-carbonyl]-8-azabicyclo[3.2.1]octane-3-carboxamide]	0.017	0.02
Cc1cc(-c2cc(C(=O)N3[C@@H]4CC[C@H]3C[C@H](C(=O)NCc3cccc(Cl)c3)C4)n[nH]2)c(F)cn1 [Example 268, (1R,3S,5S)—N-[(3-chlorophenyl)methyl]-8-[5-(5-fluoro-2-methylpyridin-4-yl)-1H-pyrazole-3-carbonyl]-8-azabicyclo[3.2.1]octane-3-carboxamide]	0.007	0.0365

Continued, in another order:

AC50 (His6-TEV-PPARγ-(234-505)) [µM]	Compound	IC50 (UM-UC-9 engineered cells) [µM]
0.0258	COc1cc(-c2cc(C(=O)N3CCC(C(=O)NCc4c(F)ccc5[nH]cnc45)CC3)n[nH]2)c(Cl)cn1 [Example 243, 1-(5-(5-chloro-2-methoxypyridin-4-yl)-1H-pyrazole-3-carbonyl)-N-((5-fluoro-1H-benzo[d]imidazol-4-yl)methyl)piperidine-4-carboxamide]	0.414
0.0247	COc1cc(-c2cc(C(=O)N3CCC(C(=O)NCc4cc5ccccc5[nH]4)CC3)n[nH]2)c(Cl)cn1 [Example 250, N-((1H-indol-2-yl)methyl)-1-(5-(5-chloro-2-methoxypyridin-4-yl)-1H-pyrazole-3-carbonyl)piperidine-4-carboxamide]	0.43
0.254	COc1cc(-c2cc(C(=O)N3CCC(C(=O)Nc4cccc(C)n4)CC3)n[nH]2)c(Cl)cn1 [Example 251, 1-(5-(5-chloro-2-methoxypyridin-4-yl)-1H-pyrazole-3-carbonyl)-N-(6-methylpyridin-2-yl)piperidine-4-carboxamide]	1.38
0.0588	COc1cc(-c2cc(C(=O)N3CCC(C(=O)NCc4nccc5[nH]ccc45)CC3)n[nH]2)c(Cl)cn1 [Example 254, N-((1H-pyrrolo[3,2-c]pyridin-4-yl)methyl)-1-(5-(5-chloro-2-methoxypyridin-4-yl)-1H-pyrazole-3-carbonyl)piperidine-4-carboxamide]	> 2
0.97	COc1cc(-c2cc(C(=O)N3CCC(C(=O)Nc4cnc(C)c(C)n4)CC3)n[nH]2)c(Cl)cn1 [Example 260, 1-(5-(5-chloro-2-methoxypyridin-4-yl)-1H-pyrazole-3-carbonyl)-N-(5,6-dimethylpyrazin-2-yl)piperidine-4-carboxamide]	4.03
0.0784	COc1cc(-c2cc(C(=O)N3CCC(C(=O)Nc4cccc5[nH]ccc45)CC3)n[nH]2)c(Cl)cn1 [Example 261, 1-(5-(5-chloro-2-methoxypyridin-4-yl)-1H-pyrazole-3-carbonyl)-N-(1H-indol-4-yl)piperidine-4-carboxamide]	0.49
0.0292	Cc1cc(-c2cc(C(=O)N3CCC(C(=O)NCc4cccc(Cl)c4)CC3)n[nH]2)c(Cl)cn1 [Example 262, 1-[5-(5-chloro-2-methylpyridin-4-yl)-1H-pyrazole-3-carbonyl]-N-[(3-chlorophenyl)methyl]piperidine-4-carboxamide]	0.332
0.658	COc1cc(-c2cc(C(=O)N3CCC(C(=O)NC4CCC(C)(O)CC4)CC3)n[nH]2)c(Cl)cn1 (stereo not drawn) [Example 264-A]	4.89
0.0877	COc1cc(-c2cc(C(=O)N3CCC(C(=O)NC4c5ccccc5OC4C)CC3)n[nH]2)c(Cl)cn1 (stereo not drawn) [Example 265, 1-(5-(5-chloro-2-methoxypyridin-4-yl)-1H-pyrazole-3-carbonyl)-N-(2-methyl-2,3-dihydrobenzofuran-3-yl)piperidine-4-carboxamide]	0.458
0.0142	Cc1cc(-c2cc(C(=O)N3CCC(C(=O)NCc4cccc(Cl)c4)CC3)n[nH]2)c(F)cn1 [Example 267, N-[(3-chlorophenyl)methyl]-1-[5-(5-fluoro-2-methylpyridin-4-yl)-1H-pyrazole-3-carbonyl]piperidine-4-carboxamide]	0.104
